Measured values: paper PMC8359613, “An essential vesicular-trafficking phospholipase mediates neutral lipid synthesis and contributes to hemozoin formation in Plasmodium falciparum” (BMC Biology, 2021)

Biological target: T1, PfLPL1 (Plasmodium falciparum, UniProt Q8IK69)
T1 construct: gene PF3D7_1476700; full length 1-353, expressed from pETM-41 in E. coli BL21(DE3); Ni-NTA then amylose resin (implies His-MBP fusion)
T1 sequence (Q8IK69 1-353): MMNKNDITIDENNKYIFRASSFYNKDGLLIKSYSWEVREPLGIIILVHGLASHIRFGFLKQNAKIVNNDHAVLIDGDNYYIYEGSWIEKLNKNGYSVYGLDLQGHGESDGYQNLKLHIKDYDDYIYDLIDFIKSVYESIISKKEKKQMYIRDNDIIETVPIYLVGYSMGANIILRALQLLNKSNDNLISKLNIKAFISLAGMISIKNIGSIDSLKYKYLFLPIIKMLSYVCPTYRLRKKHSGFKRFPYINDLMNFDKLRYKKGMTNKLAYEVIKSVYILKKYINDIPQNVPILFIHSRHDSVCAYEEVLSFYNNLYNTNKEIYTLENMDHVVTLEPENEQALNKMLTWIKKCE
Experiment: coupled Amplex Red fluorescence assay (GPC phosphodiesterase, choline oxidase, HRP)
Assay type: biochemical
Conditions: substrate 0-70 µM; Tris-HCl, CaCl2, pH 8.0; room temperature; acyl chain of LPC not stated; reaction mix lists 0.5 mM lecithin

LPC
Km: 61.2 ± 5.9 µM
